Assay results from the supplement of paper PMC10307832.

Assays:
Experiment in all cases: relative viability (nuclei count vs DMSO), 5 days (fraction); higher = more cells survive
CX-5461 + Bortezomib = compound: Cc1cnc(CNC(=O)c2c(=O)c3ccc(N4CCCN(C)CC4)nc3n3c2sc2ccccc23)cn1 [CX-5461] + CC(C)C[C@H](NC(=O)[C@H](Cc1ccccc1)NC(=O)c1cnccn1)B(O)O [Bortezomib] (partner 0.002 µM)
Procedure, shortened: (§1)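 A single step with final 0.05% Triton X-100, 1% formaldehyde and 1 ug/ml Hoechst fixed the cells and stained nuclei 5 days after treatment. Lung cancer cell lines in 1536-well plates had been treated by pin tool the day after seeding with one drug alone or a fixed anchor-drug dose plus five library-drug doses (not always all listed) in √10 steps, and nuclei were counted on 4× images. Relative viability is the ratio of nuclei in treated wells to nuclei in vehicle wells, taken as the median of duplicate plates.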

CX-5461 + Pictilisib = compound: Cc1cnc(CNC(=O)c2c(=O)c3ccc(N4CCCN(C)CC4)nc3n3c2sc2ccccc23)cn1 [CX-5461] + CS(=O)(=O)N1CCN(Cc2cc3nc(-c4cccc5[nH]ncc45)nc(N4CCOCC4)c3s2)CC1 [Pictilisib] (partner 1 µM)
Procedure, shortened: as §1

CX-5461 + Olaparib = compound: Cc1cnc(CNC(=O)c2c(=O)c3ccc(N4CCCN(C)CC4)nc3n3c2sc2ccccc23)cn1 [CX-5461] + O=C(c1cc(Cc2n[nH]c(=O)c3ccccc23)ccc1F)N1CCN(C(=O)C2CC2)CC1 [Olaparib] (partner 8 µM)
Procedure, shortened: as §1

IMD-0354 + Dasatinib = compound: O=C(Nc1cc(C(F)(F)F)cc(C(F)(F)F)c1)c1cc(Cl)ccc1O [IMD-0354] + Cc1nc(Nc2ncc(C(=O)Nc3c(C)cccc3Cl)s2)cc(N2CCN(CCO)CC2)n1 [Dasatinib] (partner 0.075 µM)
Procedure, shortened: as §1

Row | Cell Line | relative viability (CX-5461 + Bortezomib; first compound 0.01 µM) | relative viability (CX-5461 + Bortezomib; first compound 0.03162 µM) | relative viability (CX-5461 + Bortezomib; first compound 0.1 µM) | relative viability (CX-5461 + Bortezomib; first compound 0.3162 µM) | relative viability (CX-5461 + Bortezomib; first compound 1 µM) | relative viability (CX-5461 + Pictilisib; first compound 0.01 µM) | relative viability (CX-5461 + Pictilisib; first compound 0.03162 µM) | relative viability (CX-5461 + Pictilisib; first compound 0.1 µM) | relative viability (CX-5461 + Pictilisib; first compound 0.3162 µM) | relative viability (CX-5461 + Pictilisib; first compound 1 µM) | relative viability (CX-5461 + Olaparib; first compound 0.01 µM) | relative viability (CX-5461 + Olaparib; first compound 0.03162 µM) | relative viability (CX-5461 + Olaparib; first compound 0.1 µM) | relative viability (CX-5461 + Olaparib; first compound 0.3162 µM) | relative viability (CX-5461 + Olaparib; first compound 1 µM) | relative viability (IMD-0354 + Dasatinib; first compound 0.04 µM) | relative viability (IMD-0354 + Dasatinib; first compound 0.1265 µM) | relative viability (IMD-0354 + Dasatinib; first compound 0.4 µM) | relative viability (IMD-0354 + Dasatinib; first compound 1.265 µM) | relative viability (IMD-0354 + Dasatinib; first compound 4 µM)
1 | LCLC-103H | 1.1 | 1.13 | 1.11 | 1.02 | 1.07 | 0.588 | 0.611 | 0.603 | 0.483 | 0.619 | 0.766 | 0.857 | 0.793 | 0.788 | 0.762 | 0.42 | 0.487 | 0.311 | 0.232 | 0.201
2 | LOU-NH91 | 0.509 | 0.492 | 0.485 |  | 0.452 | 0.57 | 0.497 | 0.528 | 0.452 | 0.486 | 0.973 | 0.992 | 0.901 | 0.524 | 0.704 | 0.616 | 0.555 | 0.258 | 0.102 | 0.205
3 | LU99A | 1.1 | 1.02 | 0.977 | 0.868 | 0.417 | 0.296 | 0.312 | 0.271 | 0.289 | 0.173 | 0.27 | 0.241 | 0.297 | 0.221 | 0.284 | 0.573 | 0.648 | 0.445 | 0.113 | 0.19
4 | LXF-289 | 0.99 | 1.06 | 0.976 | 1.03 | 0.66 | 0.789 | 0.922 | 0.805 | 0.72 | 0.435 | 1.03 | 1.19 | 1.05 |  | 0.953 | 0.249 | 0.244 | 0.207 | 0.0737 | 0.068
5 | NCI-H23 | 0.939 | 0.964 | 0.854 | 1.06 | 0.404 | 0.449 | 0.501 | 0.488 | 0.292 | 0.362 | 0.376 | 0.303 | 0.326 | 0.333 | 0.287 | 0.836 | 0.82 | 0.384 | 0.275 | 0.227
6 | NCI-H322M | 1.2 | 1.35 | 1.26 |  | 1.23 | 0.578 | 0.535 | 0.575 |  | 0.464 | 0.761 | 0.773 | 0.691 | 0.5 | 0.511 | 0.25 | 0.277 | 0.248 | 0.222 | 0.274
7 | NCI-H441 | 0.577 | 0.555 | 0.692 | 0.465 | 0.337 | 0.376 | 0.515 | 0.505 | 0.382 | 0.339 | 0.553 | 0.664 | 0.478 | 0.588 | 0.448 | 0.611 | 0.583 | 0.499 | 0.191 | 0.229
8 | NCI-H460 | 1.15 | 0.995 | 0.16 | 0.233 | 0.0251 | 0.462 | 0.338 | 0.366 | 0.108 | 0.2 | 0.463 | 0.451 | 0.286 | 0.39 | 0.0729 | 0.518 | 0.529 | 0.253 | 0.0582 | 0.0193
9 | NCI-H520 | 0.612 | 0.527 | 0.627 | 0.257 | 0.315 | 0.218 | 0.299 | 0.285 | 0.305 | 0.298 | 0.309 | 0.315 | 0.261 | 0.277 | 0.184 | 0.21 | 0.185 | 0.186 | 0.132 | 0.163
10 | NCI-H596 | 0.948 |  | 0.594 | 1.03 | 0.529 | 0.465 | 0.406 | 0.372 | 0.429 | 0.344 | 0.719 | 0.715 | 0.626 | 1.13 | 0.676 | 0.728 | 0.608 | 0.435 | 0.63 | 0.261
11 | NCI-H647 | 1.16 | 0.991 | 0.95 | 0.935 | 0.168 | 0.429 | 0.459 | 0.426 | 0.136 | 0.28 | 0.703 | 0.721 | 0.415 | 0.552 | 0.0876 | 0.263 | 0.0872 | 0.132 | 0.0483 | 0.0895
12 | NCI-H650 | 0.887 | 0.832 | 0.739 | 0.594 | 0.483 | 0.858 | 1.05 | 0.889 | 0.664 | 0.731 | 0.369 | 0.399 | 0.399 | 0.329 | 0.337 | 0.514 | 0.484 | 0.404 | 0.264 | 0.197
13 | NCI-H661 | 0.885 | 0.877 | 0.61 |  | 0.639 | 0.372 | 0.405 | 0.377 | 0.374 | 0.382 | 0.832 | 0.754 | 0.662 | 0.602 | 0.534 | 0.903 | 1.04 | 0.533 | 0.197 | 0.234
14 | NCI-H727 | 1.03 | 0.812 | 0.596 | 0.718 | 0.662 | 0.355 | 0.492 | 0.277 | 0.253 | 0.614 | 0.713 | 0.704 | 0.762 | 0.837 | 0.763 | 0.325 | 0.4 | 0.326 | 0.256 | 0.314
15 | NCI-H838 | 0.902 | 0.85 | 0.979 | 0.29 | 0.646 | 0.457 | 0.473 | 0.5 | 0.474 | 0.325 | 0.863 | 0.846 | 0.726 | 0.726 | 0.476 | 0.239 | 0.321 | 0.256 | 0.239 | 0.214
